In PMC6678253, “The 1,3,5-Triazine Derivatives as Innovative Chemical Family of 5-HT6 Serotonin Receptor Agents with Therapeutic Perspectives for Cognitive Impairment” (International Journal of Molecular Sciences, 2019):
Where two headings read alike, the source gives them in different places.

How the values were obtained:
hepatoma HepG2 cell line [1] = test: ATP level in HepG2 (CellTiter-Glo); details: 2 h exposure, 10 µM
Description: (§2) The cells’ viability was determined by CellTiter 96® AQueous Non-Radioactive Cell Proliferation Assay (MTS), which was purchased from Promega (Madison, WI, USA). The absorbance was measured using a microplate reader EnSpire (PerkinElmer, Waltham, MA USA) at 490 nm. All compounds were tested in quadruplicate. For ATP-level measurement the cells were growth in similar way as in cytotoxicity assays. The CellTiter-Glo® Luminescent Cell Viability Assay and protocol was provided by Promega (Madison, WI, USA). The luminescence was measured after 2 hours-long cells’ exposition on tested compounds and the positive control CCCP by a microplate reader EnSpire (PerkinElmer, Waltham, MA USA) at luminescence mode. All compounds were tested in triplicate.

5-HT2A = biological target: T1, 5-HT2A (Homo sapiens, UniProt P28223); test: Radioligand binding assay, 5-HT2A ([3H]-ketanserin displacement); details: human receptor stably expressed in HEK-293
T1 construct: expressed in transfected cells; host or cells: HEK-293

[2] = Parallel artificial membrane permeability assay (PAMPA); format: in vitro ADME; details: PBS pH 7.4, 5 h, room temperature, breakpoint for permeable compounds Pe ≥ 1.5 × 10^−6 cm/s, read-out: Pe (permeability coefficient) ± SD
5-HT6 = biological target: 5-HT6; set-up: method as in PMID 28441580, PMID 30530073, PMID 31229876; details: human receptor stably expressed in HEK-293; determined previously; read-out: Ki 5-HT6 [3H]-LSD; cited from earlier work
D2L [3] = biological target: T2, D2L (Homo sapiens, UniProt P14416); set-up: method as in PMID 28441580, PMID 30530073, PMID 31229876; details: human receptor stably expressed in HEK-293; determined previously; read-out: Ki D2L [3H]-Raclopride; cited from earlier work
T2 construct: expressed in transfected cells; host or cells: HEK-293

5-HT1A [4] = biological target: T3, 5-HT1A (Homo sapiens, UniProt P08908); set-up: method as in PMID 28441580, PMID 30530073, PMID 31229876; details: human receptor stably expressed in HEK-293; determined previously; read-out: Ki 5-HT1A [3H]-8-OH-DPAT; cited from earlier work
T3 construct: expressed in transfected cells; host or cells: HEK-293
T3 sequence (P08908 1-422): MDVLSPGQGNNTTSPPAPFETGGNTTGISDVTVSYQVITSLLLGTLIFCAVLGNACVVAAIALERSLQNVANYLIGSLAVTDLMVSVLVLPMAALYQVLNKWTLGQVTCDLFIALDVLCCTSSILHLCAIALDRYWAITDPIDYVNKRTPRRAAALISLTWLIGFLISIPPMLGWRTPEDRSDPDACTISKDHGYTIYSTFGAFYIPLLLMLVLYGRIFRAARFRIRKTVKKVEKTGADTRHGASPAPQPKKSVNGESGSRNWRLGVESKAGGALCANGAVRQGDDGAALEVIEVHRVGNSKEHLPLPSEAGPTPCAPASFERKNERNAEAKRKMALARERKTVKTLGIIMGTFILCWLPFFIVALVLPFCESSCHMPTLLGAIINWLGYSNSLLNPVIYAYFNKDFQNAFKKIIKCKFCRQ

5-HT7 [5] = biological target: T4, 5-HT7 (Homo sapiens, UniProt P34969); set-up: method as in PMID 28441580, PMID 30530073, PMID 31229876; details: human receptor stably expressed in HEK-293; determined previously; read-out: Ki 5-HT7 [3H]-5-CT; cited from earlier work
T4 construct: expressed in transfected cells; host or cells: HEK-293

P-glycoprotein (Pgp) = P-glycoprotein (Pgp) (Homo sapiens, UniProt P08183); test: Luminescent Pgp-Glo Assay System; details: 100 μM, 40 min, 37 °C; for Pgp basal activity: > 100% = substrate, increase statistically insignificant
Description: Moreover, the luminescence Pgp-Glo™ Assay was used in order to determine their influence on P-glycoprotein (Pgp) activity, the main efflux pump in the transport across blood–brain barrier (BBB) and the intestinal epithelium.
The luminescent Pgp-Glo™ Assay System used for determination of 5HT6R ligands’ influence on P-glycoprotein activity was purchased from Promega (Madison, WI, USA). […] The luminescence signal was measured by microplate reader EnSpire PerkinElmer (Waltham, MA, USA).

[6] = test system: human embryonic kidney HEK-293 cell line; test: Cytotoxicity, MTS assay in HEK-293
Description: as §2

[7] = Metabolic stability in human liver microsomes (HLMs); details: for Clint: HLMs 1 mg/mL, 50 µM compound, Clint ≤ 8.6 = low clearance; for half-life at 50 µM: human, human liver microsomes
Description: The t1/2 values and intrinsic clearances (Clint) were calculated using IS by protocols and formulas proposed by Obach [30].

CYP2D6 = biological target: T5, CYP2D6 (Homo sapiens, UniProt P10635); test: CYP2D6 P450-Glo assay; format: in vitro ADME; details: for CYP2D6 activity (inhibition): at 25 µM
T5 construct: purchased Promega (Madison, WI, USA)
Description: (§1) The potential risk of drug-drug interactions (DDI) were examined by luminescence-based CYP3A4 and CYP2D6 P450-Glo™ assays (Promega®). These two CYP isoforms are responsible for metabolism of approximately half of all marketed drugs, and an influence on their activity may be a source of DDI danger. […] The luminescent CYP3A4 P450-Glo™ and CYP2D6 P450-Glo™ Promega® (Madison, WI, USA) were used for investigation of potential drug-drug interactions. All assays and protocols were described before.

[8] = Vogel conflict drinking test; details: rats
Description: It was consisted of polycarbonate cages (dimensions 26.5 cm × 15 cm × 42 cm), equipped with a grid floor made from stainless steel bars and drinking bottles containing tap water. Experimental chambers were connected to PC software by control chassis and electric shocks’ generator. On the first day of the experiment, the rats were adapted to the test chambers and drink water from the bottle spout for 10 min. Afterwards, the rats were returned to their home cages and were given 30 min free access to water followed by a 24-h water deprivation period. The adaptation session and water deprivation protocols were repeated on the second day of the experiment. On the third day the rats were placed again in the test chambers 60 min after investigated and reference compounds administration and were given free access to the drinking tube. Recording data started immediately after the first lick and rats were punished with an electric shock (0.5 mA, lasting 1 s) delivered to the metal drinking tube every 20 licks. The number of licks and the number of shocks received during a 5-min experimental session were recorded automatically.

D2L [9] = biological target: T2, D2L; test: Radioligand binding assay, D2L ([3H]-raclopride displacement); details: human receptor stably expressed in HEK-293
5-HT1A [10] = biological target: T3, 5-HT1A; test: Radioligand binding assay, 5-HT1A ([3H]-8-OH-DPAT displacement); details: human receptor stably expressed in HEK-293
5-HT7 [11] = biological target: T4, 5-HT7; test: Radioligand binding assay, 5-HT7 ([3H]-5-CT displacement); details: human receptor stably expressed in HEK-293
CYP3A4 = biological target: T6, CYP3A4 (Homo sapiens, UniProt P08684); test: CYP3A4 P450-Glo assay; format: in vitro ADME; details: 0.01-25 μM; effect of 4 at 10 and 25 µM
T6 construct: purchased Promega (Madison, WI, USA)
Description: as §1

hepatoma HepG2 cell line [12] = test: Hepatotoxicity, MTS assay in HepG2; details: 72 h; 100 µM
Description: as §2

[13] = Novel object recognition test (NORT), scopolamine-induced memory impairment; format: in vivo, rat; details: rats, 1 mg/kg; ANOVA NS
Description: Taking into account the ability of various 5-HT6R antagonists to improve cognitive deficits, the NORT assay was used to study the influence of the investigated compounds on visual episodic memory. This test is based on the spontaneous exploration of novel and familiar objects. The administration of scopolamine reduces an ability to discriminate a novel object from a familiar one, and any compounds that have a protective effect against this deficit are regarded as potentially useful for treating cognitive deficits that are characteristic for Alzheimer’s disease and other dementia connected disorders.
Five days before the experiment, the rats were transferred to the laboratory, labeled and, thereafter, left to acclimate to the new environment. The animals were handling every five days before experiments to minimize the stress reaction. The protocol was adapted from the original work. The test session comprising of two trials separated by an inter-trial interval (ITI) of 1 h was carried out on the next day. […]
The animals explored the objects by looking, licking, sniffing or touching the object but not when leaning against, standing or sitting on the object. […] Exploration time of the objects was measured by blind experimenter. Based on exploration time (E) of two objects during T2, discrimination index (DI) was calculated according to the formula: DI = (EB − EA)/(EA + […]). […]

[14] = 72 h, only at 100 µM, 1 p < 0.001, 2 p < 0.05

T4 sequence (P34969 1-432): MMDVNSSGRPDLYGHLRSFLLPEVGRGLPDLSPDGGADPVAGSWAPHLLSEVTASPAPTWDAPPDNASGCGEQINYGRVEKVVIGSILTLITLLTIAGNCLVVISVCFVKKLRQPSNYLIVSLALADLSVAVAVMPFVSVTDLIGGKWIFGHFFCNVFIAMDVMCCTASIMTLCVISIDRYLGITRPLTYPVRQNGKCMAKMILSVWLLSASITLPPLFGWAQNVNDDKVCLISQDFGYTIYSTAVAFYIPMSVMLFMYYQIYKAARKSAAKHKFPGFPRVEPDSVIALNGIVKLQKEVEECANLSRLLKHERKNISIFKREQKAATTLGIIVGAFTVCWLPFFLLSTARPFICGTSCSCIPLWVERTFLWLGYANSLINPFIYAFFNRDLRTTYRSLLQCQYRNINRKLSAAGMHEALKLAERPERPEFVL
Sequence of P-glycoprotein (Pgp) (P08183 whole entry): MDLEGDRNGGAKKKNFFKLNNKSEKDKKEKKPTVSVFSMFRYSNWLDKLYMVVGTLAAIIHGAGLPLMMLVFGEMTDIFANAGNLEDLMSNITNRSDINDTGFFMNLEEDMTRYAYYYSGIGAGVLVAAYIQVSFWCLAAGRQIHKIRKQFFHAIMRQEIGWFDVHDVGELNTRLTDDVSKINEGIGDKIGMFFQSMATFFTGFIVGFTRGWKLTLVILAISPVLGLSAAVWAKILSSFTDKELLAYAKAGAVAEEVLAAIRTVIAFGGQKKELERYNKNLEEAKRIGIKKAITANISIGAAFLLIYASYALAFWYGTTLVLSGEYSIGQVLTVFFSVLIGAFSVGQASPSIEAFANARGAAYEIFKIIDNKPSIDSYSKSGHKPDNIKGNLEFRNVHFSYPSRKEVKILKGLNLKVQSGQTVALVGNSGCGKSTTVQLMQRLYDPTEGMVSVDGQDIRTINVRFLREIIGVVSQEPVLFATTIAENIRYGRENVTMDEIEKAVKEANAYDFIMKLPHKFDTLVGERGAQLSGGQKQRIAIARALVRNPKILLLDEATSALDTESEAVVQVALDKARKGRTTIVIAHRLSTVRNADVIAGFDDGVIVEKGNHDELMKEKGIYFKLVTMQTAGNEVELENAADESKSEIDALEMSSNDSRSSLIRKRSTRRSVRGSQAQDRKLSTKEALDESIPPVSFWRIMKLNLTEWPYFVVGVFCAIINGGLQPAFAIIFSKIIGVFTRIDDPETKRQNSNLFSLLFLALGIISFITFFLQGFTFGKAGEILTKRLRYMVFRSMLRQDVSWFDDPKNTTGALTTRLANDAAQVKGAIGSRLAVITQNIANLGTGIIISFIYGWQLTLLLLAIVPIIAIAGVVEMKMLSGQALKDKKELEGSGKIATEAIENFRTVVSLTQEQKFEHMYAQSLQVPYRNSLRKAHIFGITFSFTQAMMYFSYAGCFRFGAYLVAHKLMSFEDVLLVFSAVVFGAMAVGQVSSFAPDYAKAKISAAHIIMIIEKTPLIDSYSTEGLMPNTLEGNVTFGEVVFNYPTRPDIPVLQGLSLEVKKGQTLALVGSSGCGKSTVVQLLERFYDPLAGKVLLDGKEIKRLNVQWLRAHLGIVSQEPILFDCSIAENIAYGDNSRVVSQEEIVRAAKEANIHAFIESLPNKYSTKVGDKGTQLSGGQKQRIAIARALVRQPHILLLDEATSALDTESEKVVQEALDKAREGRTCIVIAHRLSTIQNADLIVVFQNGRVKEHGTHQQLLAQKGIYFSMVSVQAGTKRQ
T5 sequence (P10635 whole entry): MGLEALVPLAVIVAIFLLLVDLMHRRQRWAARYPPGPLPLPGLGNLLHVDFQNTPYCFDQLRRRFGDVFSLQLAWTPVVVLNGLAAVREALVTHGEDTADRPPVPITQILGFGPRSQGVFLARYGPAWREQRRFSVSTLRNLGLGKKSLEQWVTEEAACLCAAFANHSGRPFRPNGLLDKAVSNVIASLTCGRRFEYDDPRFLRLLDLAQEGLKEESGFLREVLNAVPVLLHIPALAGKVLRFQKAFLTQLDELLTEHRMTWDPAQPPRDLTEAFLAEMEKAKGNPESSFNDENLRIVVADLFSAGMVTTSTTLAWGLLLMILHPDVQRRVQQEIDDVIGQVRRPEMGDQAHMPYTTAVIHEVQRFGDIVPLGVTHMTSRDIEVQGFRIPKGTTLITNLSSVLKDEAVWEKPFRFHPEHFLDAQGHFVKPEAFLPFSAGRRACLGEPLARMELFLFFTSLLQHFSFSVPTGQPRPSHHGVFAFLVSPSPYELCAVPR
T2 sequence (P14416 whole entry): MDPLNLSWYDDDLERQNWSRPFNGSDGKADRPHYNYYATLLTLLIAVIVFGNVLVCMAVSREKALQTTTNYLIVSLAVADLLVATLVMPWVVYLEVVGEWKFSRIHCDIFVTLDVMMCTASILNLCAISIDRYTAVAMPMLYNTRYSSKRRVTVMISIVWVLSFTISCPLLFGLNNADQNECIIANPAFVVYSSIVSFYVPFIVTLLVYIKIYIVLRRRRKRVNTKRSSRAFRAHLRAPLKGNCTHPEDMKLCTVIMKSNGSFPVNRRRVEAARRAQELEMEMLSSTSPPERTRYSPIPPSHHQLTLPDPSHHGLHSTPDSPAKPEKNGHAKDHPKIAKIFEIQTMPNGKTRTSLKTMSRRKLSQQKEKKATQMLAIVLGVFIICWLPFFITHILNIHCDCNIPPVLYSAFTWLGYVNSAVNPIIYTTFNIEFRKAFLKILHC
T1 sequence (P28223 whole entry): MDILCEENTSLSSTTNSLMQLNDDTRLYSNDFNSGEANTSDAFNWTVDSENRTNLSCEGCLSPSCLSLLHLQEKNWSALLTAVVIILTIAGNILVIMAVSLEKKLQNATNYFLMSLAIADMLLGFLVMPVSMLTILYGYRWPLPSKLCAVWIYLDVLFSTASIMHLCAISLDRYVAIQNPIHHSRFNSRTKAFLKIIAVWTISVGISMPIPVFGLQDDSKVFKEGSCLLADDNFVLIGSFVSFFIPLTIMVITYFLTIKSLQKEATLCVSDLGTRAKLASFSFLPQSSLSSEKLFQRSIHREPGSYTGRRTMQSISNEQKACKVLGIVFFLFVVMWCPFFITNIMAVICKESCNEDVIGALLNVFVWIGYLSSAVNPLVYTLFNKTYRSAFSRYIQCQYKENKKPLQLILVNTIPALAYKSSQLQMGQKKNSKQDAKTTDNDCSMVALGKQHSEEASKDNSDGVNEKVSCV
T6 sequence (P08684 whole entry): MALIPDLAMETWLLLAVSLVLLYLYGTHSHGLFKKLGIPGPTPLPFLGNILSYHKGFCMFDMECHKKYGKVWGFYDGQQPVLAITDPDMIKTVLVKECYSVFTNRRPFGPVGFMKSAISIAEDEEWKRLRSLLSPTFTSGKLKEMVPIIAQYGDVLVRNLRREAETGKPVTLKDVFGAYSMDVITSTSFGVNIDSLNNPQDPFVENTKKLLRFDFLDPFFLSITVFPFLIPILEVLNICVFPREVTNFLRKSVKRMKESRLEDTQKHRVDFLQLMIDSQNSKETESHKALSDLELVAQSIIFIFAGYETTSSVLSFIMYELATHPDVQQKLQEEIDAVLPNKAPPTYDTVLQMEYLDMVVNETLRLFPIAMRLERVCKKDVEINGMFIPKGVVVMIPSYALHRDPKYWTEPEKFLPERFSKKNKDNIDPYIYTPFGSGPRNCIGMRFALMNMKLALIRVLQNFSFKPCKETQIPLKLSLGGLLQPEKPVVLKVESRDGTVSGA

Row | SMILES | Ki (5-HT2A) [nM] | Papp at 5 h, 200 µM [2] [×10⁻⁶ cm/s] | Ki (5-HT6) [nM] | Pgp basal activity (P-glycoprotein (Pgp)) | Clint [7] [mL/min/kg] | half-life at 50 µM [7] [h] | anxiolytic-like activity in Vogel conflict drinking test ([8]; i.p. 60 min before test) | also measured
1 | N#CC(C#N)=NNc1cccc(Cl)c1 [CCCP, carbonyl cyanide 3-chlorophenylhydrazone] | – | – | – | – | – | – | – | ATP level in HepG2 (hepatoma HepG2 cell line [1]): ~ 33 % of control
2 | CN1CCN(c2nc(N)nc(Cc3cccc(Cl)c3)n2)CC1 [Compound 1] | 272 | 23.6 ± 2.14 | 28 | ~ 135% | 7.56 | 1.38 | – | Ki (D2L [3]): 838 nM; Ki (5-HT1A [4]): 4950 nM; Ki (5-HT7 [5]): 8710 nM; HEK-293 cells viability [6, 14]: significant effect
3 | Cc1cccc(Cc2nc(N)nc(N3CCN(C)CC3)n2)c1 [Compound 2] | 329 | 19.9 ± 2.68 | – | – | 3.96 | 2.63 | – | CYP2D6 activity (induction) (CYP2D6; at 10 and 25 µM): ~ 148 % of the control activity; Ki (D2L [3]): 1190 nM; Ki (5-HT1A [4]): 10200 nM; Ki (5-HT7 [5]): 16200 nM; effect on Pgp basal activity (P-glycoprotein (Pgp); p < 0.001): inhibited significantly; HEK-293 cells viability [6, 14]: significant effect
4 | CN1CCN(c2nc(N)nc(Cc3c[nH]c4ccccc34)n2)CC1 [Compound 3, 4-((1H-indol-3-yl)methyl)-6-(4-methylpiperazin-1-yl)-1,3,5-triazin-2-amine] | 1760 | 17.9 ± 5.76 | 22 | ~ 135% | 2.34 | 4.45 | anxiolytic-like activity was shown | CYP2D6 activity (inhibition) (CYP2D6): ~ 75 % of the control activity; increase of the number of shocks ([8]; 1 mg/kg i.p., p < 0.05): about 82%
5 | Cc1ccc(C(C)C)c(OCc2nc(N)nc(N3CCN(C)CC3)n2)c1 [Compound 4, 4-((2-isopropyl-5-methylphenoxy)methyl)-6-(4-methylpiperazin-1-yl)-1,3,5-triazin-2-amine] | 430 | 12.3 ± 1.98 | 11 | ~ 135% | 6.30 | 1.65 | anxiolytic-like activity was shown | Ki (D2L [9]): 1090 nM; Ki (5-HT1A [10]): 12500 nM; Ki (5-HT7 [11]): 12000 nM; influence on CYP3A4 activity (CYP3A4): slight induction effect; CYP2D6 activity (inhibition) (CYP2D6): ~ 75 % of the control activity; increase of the number of licks ([8]; 0.3 mg/kg i.p., p < 0.0001): about 76%; lowest toxic dose vs 5-HT6R Ki ([6]; 10 μM vs Ki = 11 nM): ~ 1000 fold; HEK-293 cells viability ([6]; 72 h, at 10 and 100 µM, p < 0.001): statistically significant decrease in cells viability; lowest toxic dose ([6]; cytotoxicity, 72 h): 10 µM; HepG2 viability (hepatotoxic effect) (hepatoma HepG2 cell line [12]): hepatotoxic effect
6 | COc1ccc(S(=O)(=O)Nc2cc(Cl)cc(Cl)c2OC)cc1N1CCNCC1 [SB-399885, N-[3,5-dichloro-2-(methoxy)-phenyl]-4-(methoxy)-1-(piperazinyl)benzenesulfonamide, reference compound] | – | – | – | – | – | – | anxiolytic-like activity was shown | anxiolytic-like activity in Vogel conflict drinking test ([8]; 1 and 3 mg/kg i.p.): exerted anxiolytic-like activity
7 | CCN(C)C(=O)Oc1cccc([C@H](C)N(C)C)c1 [rivastigmine] | – | – | – | – | – | – | – | effect on scopolamine induced learning deficits in NORT [13]: similar, but lower pro-cognitive effects
